Assay results reported in US6638961B2 (priority 1994, dated 2003).
Values joined by “and” are separate entries in the source; they are usually repeats but may differ in a detail not shown here. Equal entries are not always repeated.

Legend:
[1] = test system: Phytophthora infestans (tomato blight); format: in vivo; details: for dose of the active substance alone which it is necessary to apply to obtain the destruction of 90% of the pest: applied alone, tomato plants sprayed 48 hours before contamination, reading 7 days after contamination
[2] = test system: Plasmopara viticola (vine downy mildew); assay: In vivo trial on Plasmopara viticola (vine downy mildew) by preventive treatment at 72 hours, vine cuttings Chardonnay variety
Method: (§1) A 60 mg suspension is prepared comprising compounds A and B in a liquid mixture consisting of 0.3 ml of a surface-active agent (oleate of a polyoxyethylenated derivative of sorbitan) diluted 10% in water and of 60 ml of water.
(§2) Vine cuttings (Vitis vinifera) Chardonnay variety, are cultivated in pots. When these plants are 2 months old (8 to 10-leaf stage, height 10 to 15 cm), they are treated by spraying using the above suspension.
(§3) Plants used as controls are treated with a similar suspension but not containing any active substance (formulation blank).
(§4) After drying for 72 hours, each plant is contaminated by spraying an aqueous Plasmopara viticola spore suspension obtained from sporulated leaves contaminated 7 days earlier. These spores are suspended in an amount of 100,000 units per cm^3.
(§5) The contaminated plants are then incubated for two days at about 18° C., in an atmosphere saturated with moisture, and then for 5 days at 20-22° C. under a relative humidity of 90-100%.

[3] = test system: Plasmopara viticola (vine downy mildew); assay: In vivo trial on Plasmopara viticola (vine downy mildew) by preventive treatment at 24 hours, vine cuttings Chardonnay variety; details: dose 3.2 mg/l compound A and/or 12.5 mg/l mancozeb; contamination 24 hours after treatment
Method: as §1, §2, §3, §4, §5
Example 2 is repeated using as component B mancozeb, using A and B concentrations in the suspension for treating the plants equal to 3.2 and 12.5 mg/l respectively, and finally carrying out the contamination 24 hours after the treatment.
The efficacy measured, as well as the efficacy of products A and B alone measured under the same conditions, is indicated in the table below. […]

Molecule | dose of the active substance alone which it is necessary to apply to obtain the destruction of 90% of the pest [1] | dose of the active substance alone which it is necessary to apply to obtain the destruction of 90% of the pest ([2]; applied alone, vine plants sprayed 72 hours before contamination, reading 7 days after contamination) | Efficacy (in %) [3] | efficacy when applied alone ([1]; applied alone under the trial conditions, preventive 48 hours, 90% destruction level (FIG. 1)) | efficacy when applied alone ([2]; applied alone under the trial conditions, preventive 72 hours, 90% destruction level (FIG. 2))
CSC1=N[C@@](C)(c2ccccc2)C(=O)N1Nc1ccccc1 [Compound A, (4S)-4-methyl-2-methylthio-4-phenyl-1-phenylamino-2-imidazolin-5-one] | 309 mg/L and 163 mg/L | 20 mg/L | 80.8% | – | –
CCN(C)C(=O)c1ccc(C(F)(F)F)cc1-c1ccc(OC)c(OC)c1 [N-methyl-N-ethyl-2-(3,4-dimethoxyphenyl)-4-trifluoromethylbenzamide] | 166 mg/L | – | – | – | –
CCO[PH](=O)O [fosetyl-Al] | – | – | – | not effective | not effective
mancozeb | – | – | 0% | – | –
